Tests used:
Mus musculus [1] = species on record: Mus musculus; assay: Inhibitory effect of compound on the accumulation of NO2 in the culture media of RAW 264.7 cells in response to LPS; potent effect; format: functional
Mus musculus [2] = species on record: Mus musculus; assay: Inhibitory effect of compound on the accumulation of NO2 in the culture media of N9 cells in response to LPS/IFN-gamma; potent effect; format: functional
Mus musculus [3] = species on record: Mus musculus; assay: Inhibitory effect of compound on the accumulation of NO2 in the culture media of N9 cells in response to LPS/IFN-gamma; format: functional, cell-based
Mus musculus [4] = species on record: Mus musculus; assay: Inhibitory effect of compound on the accumulation of NO2 in the culture media of RAW 264.7 cells in response to LPS; format: functional, cell-based
Rattus norvegicus [5] = species on record: Rattus norvegicus; assay: Inhibitory effect of compound on superoxide anion generation in rat neutrophils stimulated with PMA; format: functional
Rattus norvegicus [6] = species on record: Rattus norvegicus; assay: Inhibitory effect of compound on superoxide anion generation in rat neutrophils stimulated with fMLP/CB; format: functional

IC50 (Mus musculus [1])	IC50 (Mus musculus [2])	IC50 (Mus musculus [3]) [µM]	IC50 (Mus musculus [4]) [µM]	IC50 (Rattus norvegicus [5]) [µM]	IC50 (Rattus norvegicus [6]) [µM]	Structure (SMILES)
potent effect	potent effect	–	–	–	–	CC(=O)c1cc2c3c(ccc2o1)[C@@H]1COc2cc(O)ccc2[C@@H]1O3 [CROTAFURAN B]
–	–	> 30	> 30	> 30	25.1	O=c1c(-c2ccc(O)cc2O)coc2cc(O)ccc12
potent effect	potent effect	–	–	–	–	C=C(C)c1cc2c3c(ccc2o1)[C@@H]1COc2cc(O)ccc2[C@@H]1O3 [CROTAFURAN A]
–	–	13.9	> 30	> 30	> 30	C[C@](O)(CO)c1cc2c3c(ccc2o1)[C@@H]1COc2cc(O)ccc2[C@@H]1O3

Continued, compound first:

Structure (SMILES)	IC50 (Mus musculus [1])	IC50 (Mus musculus [2])	IC50 (Mus musculus [3]) [µM]	IC50 (Mus musculus [4]) [µM]	IC50 (Rattus norvegicus [5]) [µM]	IC50 (Rattus norvegicus [6]) [µM]
O=c1cc(-c2ccc(O)cc2)oc2cc(O)cc(O)c12 [APIGENIN]	–	–	> 30	10.7	> 30	3.4
COc1cc(O)ccc1-c1coc2cc(O)cc(O)c2c1=O [THERALIN]	–	–	> 30	> 30	> 30	> 30
CN1CCN(CCCN2c3ccccc3Sc3ccc(C(F)(F)F)cc32)CC1 [TRIFLUOPERAZINE]	–	–	–	–	2.7	6.6
O=c1c(O)c(-c2ccc(O)cc2)oc2cc(OC3O[C@H](CO)[C@@H](O)[C@H](O)[C@H]3O)cc(O)c12 (stereo partly specified)	–	–	> 30	> 30	> 30	> 30
O=c1cc(-c2ccc(O)cc2)oc2cc(O)ccc12	–	–	> 30	> 30	> 30	> 30
CC(=N)NCc1cccc(CN)c1 [1400W]	–	–	2.2	6.1	–	–
O=c1c(-c2ccc(O)cc2O)coc2cc(O)cc(O)c12	–	–	> 30	> 30	> 30	> 30

Reference: ChEMBL document CHEMBL1146663, “Anti-inflammatory flavonoids and pterocarpanoid from Crotalaria pallida and C. assamica” (Bioorg Med Chem Lett, 2004)
